Data from PubChem BioAssay (NCI).
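Grown in 96-well plates, cells were treated for 48 hours with each compound at five concentrations. Insufficient inhibition: endpoint recorded as highest concentration tested. At the TGI there is no net growth.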

Columns and labels:
Experiment in all cases: NCI tumour cell line growth inhibition, 48 h
[1] = tested on: SK-MEL-5 melanoma
[2] = tested on: EKVX NSCLC
[3] = tested on: A549 NSCLC
[4] = tested on: SN12K1 renal
[5] = tested on: SF-268 CNS
[6] = tested on: HCT-15 colon
[7] = tested on: HCC-2998 colon
[8] = tested on: OVCAR-3 ovarian
[9] = tested on: NCI-H460 lung
[10] = tested on: XF 498 CNS
[11] = tested on: HOP-62 NSCLC
[12] = tested on: KM20L2 colon
[13] = tested on: U251 CNS
[14] = tested on: TK-10 renal
[15] = tested on: UACC-62 melanoma
[16] = tested on: K-562 leukemia
[17] = tested on: A498 renal
[18] = tested on: RXF-631 renal
[19] = tested on: CAKI-1 renal
[20] = tested on: SW-620 colon
[21] = tested on: OVCAR-8 ovarian
[22] = tested on: IGROV1 ovarian
[23] = tested on: RXF 393 renal
[24] = tested on: SF-295 CNS
[25] = tested on: SNB-19 CNS
[26] = tested on: SNB-75 CNS
[27] = tested on: DMS 273 small cell lung
[28] = tested on: SK-MEL-2 melanoma
[29] = tested on: OVCAR-5 ovarian
[30] = tested on: NCI-H226 lung
[31] = tested on: CCRF-CEM leukemia
[32] = tested on: HL-60(TB) leukemia
[33] = tested on: NCI-H23 lung
[34] = tested on: MOLT-4 leukemia
[35] = tested on: ACHN renal
[36] = tested on: NCI-H522 lung
[37] = tested on: LOX IMVI melanoma
[38] = tested on: MALME-3M melanoma
[39] = tested on: SF-539 CNS
[40] = tested on: HCT-116 colon
[41] = tested on: SK-MEL-28 melanoma
[42] = tested on: OVCAR-4 ovarian
[43] = tested on: 786-0 renal
[44] = tested on: HOP-92 NSCLC
[45] = tested on: NCI/ADR-RES ovarian
[46] = tested on: HOP-18 NSCLC
[47] = tested on: SK-OV-3 ovarian
[48] = tested on: M14 melanoma
[49] = tested on: MCF7 breast
[50] = tested on: RPMI-8226 leukemia
[51] = tested on: KM12 colon
[52] = tested on: LXFL 529 NSCLC
[53] = tested on: COLO 205 colon
[54] = tested on: SN12C renal
[55] = tested on: UACC-257 melanoma
[56] = tested on: SNB-78 CNS
[57] = tested on: DLD-1 colon
[58] = tested on: HT29 colon
[59] = tested on: M19-MEL melanoma
[60] = tested on: UO-31 renal
[61] = tested on: DMS 114 small cell lung
[62] = tested on: HS 578T breast
[63] = tested on: MDA-N
[64] = tested on: T-47D breast
[65] = tested on: BT-549 breast
[66] = tested on: MDA-MB-435
[67] = tested on: DU-145 prostate
[68] = tested on: MDA-MB-231 breast
[69] = tested on: PC-3 prostate
[70] = tested on: SR leukemia

## CN(C)CC1CC/C(=C\c2ccc(Cl)cc2)C1=O (stereo not given)
[1]
  TGI: 24.2 µM
[2]
  TGI: 30.1 µM
[3]
  TGI: 42.1 µM
[4]
  TGI: 5.15 µM
[5]
  TGI: 19.9 µM
[6]
  TGI: 9.75 µM
[7]
  TGI: 18.8 µM
[8]
  TGI: 18.7 µM
[9]
  TGI: 41.6 µM
[10]
  TGI: 19.8 µM
[11]
  TGI: 41.5 µM
[12]
  TGI: 29.7 µM
[13]
  TGI: 14 µM
[14]
  TGI: 21.7 µM
[15]
  TGI: 21.7 µM
[16]
  TGI: 4.46 µM
[17]
  TGI: 24 µM
[18]
  TGI: 38.1 µM
[19]
  TGI: 12.9 µM
[20]
  TGI: 7.44 µM
[21]
  TGI: 12.8 µM
[22]
  TGI: 31.1 µM
[23]
  TGI: 8.66 µM
[24]
  TGI: 35.5 µM
[25]
  TGI: 30.1 µM
[26]
  TGI: 28.7 µM
[27]
  TGI: 12.9 µM
[28]
  TGI: 26.6 µM
[29]
  TGI: 34.3 µM
[30]
  TGI: 35.8 µM
[31]
  TGI: 2.89 µM
[32]
  TGI: 2.88 µM
[33]
  TGI: 21.8 µM
[34]
  TGI: 2.75 µM
[35]
  TGI: 25.7 µM
[36]
  TGI: 6.94 µM
[37]
  TGI: 6.87 µM
[38]
  TGI: 15 µM
[39]
  TGI: 27.3 µM
[40]
  TGI: 9.41 µM
[41]
  TGI: 10.4 µM
[42]
  TGI: 29.1 µM
[43]
  TGI: 6.79 µM
[44]
  TGI: 22.5 µM
[45]
  TGI: 16.1 µM
[46]
  TGI: 34 µM
[47]
  TGI: 24.5 µM
[48]
  TGI: 22.5 µM
[49]
  TGI: 7.47 µM
[50]
  TGI: 2.41 µM
[51]
  TGI: 13.7 µM
[52]
  TGI: 4.13 µM
[53]
  TGI: 12 µM
[54]
  TGI: 20.5 µM
[55]
  TGI: 21.3 µM
[56]
  TGI: 40.4 µM
[57]
  TGI: 12.5 µM
[58]
  TGI: 23.7 µM
[59]
  TGI: 10.7 µM
[60]
  TGI: 30.5 µM
[61]
  TGI: 20.7 µM

## COC(=O)C1=C(C=O)C2C=CC1C2 (stereo not given)
[62]
  TGI: > 100 µM
[1]
  TGI: > 100 µM
[2]
  TGI: > 100 µM
[3]
  TGI: > 100 µM
[5]
  TGI: > 100 µM
[6]
  TGI: 62.2 µM
[7]
  TGI: > 100 µM
[8]
  TGI: 95.5 µM
[9]
  TGI: > 100 µM
[10]
  TGI: 65.3 µM
[11]
  TGI: > 100 µM
[12]
  TGI: > 100 µM
[13]
  TGI: > 100 µM
[63]
  TGI: > 100 µM
[14]
  TGI: > 76 µM
[15]
  TGI: > 100 µM
[16]
  TGI: 74.5 µM
[17]
  TGI: > 100 µM
[18]
  TGI: > 100 µM
[19]
  TGI: > 56.2 µM
[20]
  TGI: 62.6 µM
[21]
  TGI: > 94 µM
[64]
  TGI: > 100 µM
[65]
  TGI: > 100 µM
[22]
  TGI: > 100 µM
[23]
  TGI: > 100 µM
[24]
  TGI: > 100 µM
[25]
  TGI: > 100 µM
[26]
  TGI: > 100 µM
[27]
  TGI: > 65.1 µM
[28]
  TGI: > 100 µM
[29]
  TGI: > 100 µM
[30]
  TGI: > 100 µM
[31]
  TGI: 55 µM
[32]
  TGI: 50.6 µM
[33]
  TGI: > 100 µM
[34]
  TGI: 71.2 µM
[35]
  TGI: > 81.2 µM
[36]
  TGI: 61.4 µM
[37]
  TGI: > 72.3 µM
[38]
  TGI: > 100 µM
[66]
  TGI: > 100 µM
[39]
  TGI: > 100 µM
[40]
  TGI: > 76.3 µM
[41]
  TGI: > 90.2 µM
[42]
  TGI: > 100 µM
[43]
  TGI: > 100 µM
[44]
  TGI: > 100 µM
[45]
  TGI: > 100 µM
[46]
  TGI: > 91.4 µM
[47]
  TGI: > 100 µM
[48]
  TGI: 67.1 µM
[67]
  TGI: > 100 µM
[49]
  TGI: > 100 µM
[50]
  TGI: > 89.2 µM
[51]
  TGI: > 100 µM
[52]
  TGI: 39.7 µM
[53]
  TGI: 66.3 µM
[54]
  TGI: > 90.1 µM
[55]
  TGI: 71.3 µM
[68]
  TGI: > 100 µM
[69]
  TGI: > 100 µM
[56]
  TGI: > 100 µM
[57]
  TGI: 78.5 µM
[70]
  TGI: > 100 µM
[58]
  TGI: > 79.2 µM
[59]
  TGI: > 70.3 µM
[60]
  TGI: > 100 µM
[61]
  TGI: > 84.6 µM
